“Also recorded” adds a separate entry of the source.
Assays:
Fdc1/Pad1 = biological target: T1, Fdc1/Pad1 (Saccharomyces cerevisiae, UniProt Q03034); assay: Fdc1/Pad1 substrate range, in vivo and in vitro (summary); conditions: summary of substrate range
T1 construct: His (N); made in house; host or cells: E. coli Bl21(DE3), pCOLAduet-1
T1 sequence (Q03034 1-503): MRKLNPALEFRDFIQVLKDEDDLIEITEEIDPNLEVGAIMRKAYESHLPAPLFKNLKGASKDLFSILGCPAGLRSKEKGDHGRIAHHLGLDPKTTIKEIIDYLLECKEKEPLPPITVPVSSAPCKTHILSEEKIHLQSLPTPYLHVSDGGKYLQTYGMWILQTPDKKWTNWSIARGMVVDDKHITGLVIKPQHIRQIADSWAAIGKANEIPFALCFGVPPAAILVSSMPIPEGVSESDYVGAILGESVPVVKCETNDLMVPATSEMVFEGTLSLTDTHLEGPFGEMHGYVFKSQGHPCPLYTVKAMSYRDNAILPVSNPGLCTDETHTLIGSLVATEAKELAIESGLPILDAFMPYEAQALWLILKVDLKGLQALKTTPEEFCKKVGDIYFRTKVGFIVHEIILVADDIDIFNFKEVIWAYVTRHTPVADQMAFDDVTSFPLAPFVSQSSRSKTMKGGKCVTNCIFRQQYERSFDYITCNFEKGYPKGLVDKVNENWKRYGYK
Description: To assess what limit the enzyme imposes on the extent of unsaturation, the inventors tested a wide range of saturated and unsaturated substrates, both in vivo and in vitro.

purified His-Fdc1/Pad1 [1] = biological target: T2, purified His-Fdc1/Pad1 (Saccharomyces cerevisiae, UniProt Q03034); assay: UV-VIS spectroscopy of substrate consumption, Michaelis Menten parameters; conditions: for Kcat: substrate of purified His-Fdc1/Pad1, pH 6, 20° C.
T2 sequence (Q03034 1-503): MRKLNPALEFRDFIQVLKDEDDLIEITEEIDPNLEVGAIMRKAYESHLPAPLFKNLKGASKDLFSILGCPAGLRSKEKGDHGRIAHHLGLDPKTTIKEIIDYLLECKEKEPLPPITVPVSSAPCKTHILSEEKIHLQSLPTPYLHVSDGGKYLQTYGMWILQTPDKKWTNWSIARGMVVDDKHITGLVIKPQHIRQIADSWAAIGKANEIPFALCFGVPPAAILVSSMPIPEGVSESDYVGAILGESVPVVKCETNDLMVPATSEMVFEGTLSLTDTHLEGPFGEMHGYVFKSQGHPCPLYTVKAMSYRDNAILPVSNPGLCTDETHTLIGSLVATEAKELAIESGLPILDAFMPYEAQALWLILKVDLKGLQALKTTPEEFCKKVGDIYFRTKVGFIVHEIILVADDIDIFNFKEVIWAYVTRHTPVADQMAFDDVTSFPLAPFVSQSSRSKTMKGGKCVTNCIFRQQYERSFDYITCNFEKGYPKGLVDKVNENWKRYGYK
Experimental: A direct observation of enzyme activity is possible by recording UV-VIS spectra of the solution. Aromatic substrates and aliphatic substrates with two or more double bonds conjugated to the acidic group absorb in the UV region. The activity of purified His-Fdc1/Pad1 was assayed against varying concentrations of these substrates in 400 μl 50 mM KCl, 50 mM NaPi pH 6 in a 1 mm pathlength cuvette at 20° C. Substrate consumption was monitored using a Cary 50 Bio spectrophotometer (varian) either in scanning mode, or at a specific wavelength for kinetic experiments. The rate of cinnamic acid consumption was monitored at 270 nm, ferulic acid at 312 nm, 2,4-pentadienoic acid at 242 nm, sorbic acid at 260 nm, 2,4,6-octatrienoic acid at 290 nm and 2,4-nonadienoic acid at 260 nm.

[2] = biological target: T3, fdc1/pad1 in pCOLAduet in E. coli Bl21(DE3) (Saccharomyces cerevisiae, UniProt Q03034); assay: head space GC-MS product analysis, in vivo (induced cultures); assay type: cell-based; conditions: E. coli cultures expressing Fdc1/Pad1, 25° C.
T3 construct: expressed in transfected cells; host or cells: E. coli Bl21(DE3) carrying fdc1 (MCS1) and pad1 (MCS2) in pCOLAduet-1
T3 sequence (Q03034 1-503): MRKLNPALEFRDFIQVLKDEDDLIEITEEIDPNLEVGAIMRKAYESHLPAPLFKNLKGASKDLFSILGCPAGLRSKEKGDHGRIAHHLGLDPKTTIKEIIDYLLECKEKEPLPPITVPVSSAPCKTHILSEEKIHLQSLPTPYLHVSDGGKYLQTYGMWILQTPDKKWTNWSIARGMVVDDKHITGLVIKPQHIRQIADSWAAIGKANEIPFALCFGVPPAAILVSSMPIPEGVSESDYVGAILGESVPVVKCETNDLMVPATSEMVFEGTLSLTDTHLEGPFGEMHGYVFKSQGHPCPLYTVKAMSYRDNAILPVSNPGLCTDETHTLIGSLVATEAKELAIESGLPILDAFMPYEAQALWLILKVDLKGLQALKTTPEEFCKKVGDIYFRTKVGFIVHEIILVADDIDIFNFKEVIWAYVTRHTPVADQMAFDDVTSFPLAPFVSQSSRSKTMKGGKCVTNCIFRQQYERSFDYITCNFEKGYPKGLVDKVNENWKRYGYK
Experimental: For in vivo analysis, fdc1/pad1 in pCOLAduet and empty pCOLAduet in E. coli Bl21(DE3) were grown in LB supplemented with 40 μg/ml kanamycin at 37° C. to an OD600 of about 0.7 and induced with […] IPTG. 11.5 ml induced culture and a solution of 3.5 ml 20 mM substrate in distilled water with a pH of about 7.5 were placed in 20 ml head space vials with crimp top seals. Cultures were incubated in shaking incubator at 25° C. for about 12-48 hours.
(§1) Samples were analysed by GC-MS using a Thermofisher DSQ II. Vials were incubated for 3 minutes at 80° C. with agitation. 0.5 ml headspace was injected with a 105° C. syringe and a split ratio of 1/10. Analytes were separated on a 30 m 0.25 mm 0.25μ ZB5-MS (commercially obtainable from Zebron) column run (alternatively a 30 m×0.25 mm i.d.×0.1μ Varian VF-5HT column may be used) with a flow of 1.5 ml/min He. Oven temperature was held at 35° C. for 2 minutes before being ramped up to 250° C. at 10° C./min. Products were identified by searching for the corresponding mass peak.
As described above, for in vivo studies, Fdc1/Pad1 in pCOLAduet-1 and empty pCOLAduet-1 vector were transformed into E. coli Bl21(DE3). Cultures were grown in LB supplemented with 40 μg/ml kanamycin at 37° C. to OD600˜0.7 and induced with 1 mM IPTG. 11.5 ml of induced culture was added to 3.5 ml 20 mM substrate pH ˜7.5 per tube in a sealed headspace vial.
(§2) All Fdc1/Pad1 reactions were incubated in a shaking incubator at 25° C. for ˜36 hours.
as §1, with “(or” for “(commercially obtainable from Zebron) column run (alternatively a”, “VF-5HT)” for “VF-5HT”, “run” for “may be used)”, “raised” for “ramped up”

purified His-Fdc1/Pad1 [3] = biological target: T2, purified His-Fdc1/Pad1; assay: head space GC-MS product analysis, in vitro reactions; assay type: biochemical; set-up: His (N); made in house; host or cells: E. coli Bl21(DE3), pCOLAduet-1 co-expression plasmid, Ni-NTA purified; conditions: purified enzyme, 25° C.
Experimental: For in vitro analysis, purified His-Fdc1/Pad1 polypeptide was buffer exchanged into a solution of 150 mM NaCl and 50 mM NaPi in water with pH 7.5. Subsequently solutions of 11.5 ml 150 mM NaCl and 50 mM NaPi with pH 7.5, of 3.5 ml 20 mM substrate with pH 7.5 and of 150 μl 30 mg/ml enzyme in water or buffer were added to 20 ml head space vials with crimp top seals. Reactions were incubated with shaking at 25° C. for about 12-48 hours.
as §1
For in vitro reactions, Fdc1/Pad1 partially purified by Ni^2+ affinity and buffer exchanged into 150 mM NaCl, 50 mM NaPi pH 7.5. 11.5 ml […] pH 7.5, 3.5 ml 20 mM substrate pH 7.5 and 150 μl 30 mg/ml enzyme or enzyme free buffer were added to a sealed headspace vial.
as §2
as §1, with “(or” for “(commercially obtainable from Zebron) column run (alternatively a”, “VF-5HT)” for “VF-5HT”, “run” for “may be used)”, “raised” for “ramped up”

[4] = biological target: E. coli Bl21(DE3) cells containing the fdc1/pad1 co-expression plasmid (Saccharomyces cerevisiae, UniProt Q03034); conditions: 6 mM sorbic acid, pH 6.2, overnight at 37° C.
Experimental: In vivo enzyme activity assays were carried out using exogenous supplied substrates in the media (i.e. sorbic acid).
For in vivo pH assays, LB agar plates were supplemented with […] kanamycin, 6 mM sorbic acid and 0.004% w/v phenol red in distilled water and buffered to pH 6.2. E. coli Bl21(DE3) cells containing either the co-expression plasmid or empty pCOLAduet-1 were inoculated onto the plate and grown overnight at 37° C. […] This allows rapid visual indication of enzyme activity levels.

[5] = substrate: CCCCC=CC=CC(=O)O; assay: purified protein, by the assay type; conditions: other: substrate of purified His-Fdc1/Pad1, pH 6, 20° C.
[6] = substrate: C/C=C/C=C/C(=O)O; assay: purified protein, by the assay type; conditions: other: substrate of purified His-Fdc1/Pad1, pH 6, 20° C.
[7] = substrate: C=CC=CC(=O)O; assay: purified protein, by the assay type; conditions: other: substrate of purified His-Fdc1/Pad1, pH 6, 20° C.
[8] = substrate: COc1cc(/C=C/C(=O)O)ccc1O; assay: purified protein, by the assay type; conditions: other: substrate of purified His-Fdc1/Pad1, pH 6, 20° C.
[9] = substrate: O=C(O)C=Cc1ccccc1; assay: purified protein, by the assay type; conditions: other: substrate of purified His-Fdc1/Pad1, pH 6, 20° C.
[10] = substrate: CC=CC=CC=CC(=O)O; assay: purified protein, by the assay type; conditions: other: substrate of purified His-Fdc1/Pad1, pH 6, 20° C.

CC=CC=CC=CC(=O)O [2,4,6-Octatrienoic acid]
in vitro and in vivo activity (decarboxylation) (Fdc1/Pad1): high
enzyme dependent spectral changes / conversion by UV-VIS (purified His-Fdc1/Pad1 [1]): enzyme catalysed conversion

CCCCC=CC=CC(=O)O [2,4-Nonadienoic acid]
in vitro and in vivo activity (decarboxylation) (Fdc1/Pad1): high

C=CC=CC(=O)O [2,4-Pentadienoic acid]
in vitro and in vivo activity (decarboxylation) (Fdc1/Pad1): high

CCCCC=CC(=O)O [2-Heptenoic acid]
decarboxylation product formation by GC-MS, in vivo [2]: only been detected in vivo; also recorded: In vivo activity has also been detected

CCCC=CC(=O)O [2-Hexenoic acid]
in vitro and in vivo activity (decarboxylation) (Fdc1/Pad1): Lower level activity
decarboxylation product formation by GC-MS, in vitro (purified His-Fdc1/Pad1 [3]): 1-pentene product has been detected and enzyme-catalysed production of 1-pentene
decarboxylation product formation by GC-MS, in vivo [2]: also been detected in vivo

CCCCCC=CC(=O)O [2-Octenoic acid]
decarboxylation product formation by GC-MS, in vivo [2]: only been detected in vivo
decarboxylation product formation by GC-MS, in vivo ([2]; listed as 2-octenoic acids): In vivo activity has also been detected

O=C(O)C=Cc1ccccc1 [Cinnamic acid]
in vitro and in vivo activity (decarboxylation) (Fdc1/Pad1): high
decarboxylation product formation by GC-MS, in vitro (purified His-Fdc1/Pad1 [3]): confirmed product formation; also recorded: confirming styrene production
decarboxylation product formation by GC-MS, in vivo [2]: verified the presence of the anticipated decarboxylation products; also recorded: confirming styrene production
Kcat (purified His-Fdc1/Pad1 [1]): 34.394 s⁻¹

COc1cc(/C=C/C(=O)O)ccc1O [Ferulic acid]
in vitro and in vivo activity (decarboxylation) (Fdc1/Pad1): high
decarboxylation product formation by GC-MS, in vitro (purified His-Fdc1/Pad1 [3]): confirmed product formation
decarboxylation product formation by GC-MS, in vivo [2]: verified the presence of the anticipated decarboxylation products
Kcat (purified His-Fdc1/Pad1 [1]): 30.774 s⁻¹

C/C=C/C=C/C(=O)O [Sorbic acid]
substrate dependent alkalinification in vivo [4]: yellow to red colour change observed
in vitro and in vivo activity (decarboxylation) (Fdc1/Pad1): high
decarboxylation product formation by GC-MS, in vitro (purified His-Fdc1/Pad1 [3]): confirmed product formation
decarboxylation product formation by GC-MS, in vivo [2]: verified the presence of the anticipated decarboxylation products
Kcat (purified His-Fdc1/Pad1 [1]): 2.793 s⁻¹

B1: purified His-Fdc1/Pad1 (Saccharomyces cerevisiae S288C) (protein)
chain: MRKLNPALEFRDFIQVLKDEDDLIEITEEIDPNLEVGAIMRKAYESHLPAPLFKNLKGASKDLFSILGCPAGLRSKEKGDHGRIAHHLGLDPKTTIKEIIDYLLECKEKEPLPPITVPVSSAPCKTHILSEEKIHLQSLPTPYLHVSDGGKYLQTYGMWILQTPDKKWTNWSIARGMVVDDKHITGLVIKPQHIRQIADSWAAIGKANEIPFALCFGVPPAAILVSSMPIPEGVSESDYVGAILGESVPVVKCETNDLMVPATSEMVFEGTLSLTDTHLEGPFGEMHGYVFKSQGHPCPLYTVKAMSYRDNAILPVSNPGLCTDETHTLIGSLVATEAKELAIESGLPILDAFMPYEAQALWLILKVDLKGLQALKTTPEEFCKKVGDIYFRTKVGFIVHEIILVADDIDIFNFKEVIWAYVTRHTPVADQMAFDDVTSFPLAPFVSQSSRSKTMKGGKCVTNCIFRQQYERSFDYITCNFEKGYPKGLVDKVNENWKRYGYK
Km [5]: 221 µM
kcat [5]: 0.588 s⁻¹
Km [6]: 81 µM
Km [7]: 109 µM
kcat [7]: 0.336 s⁻¹
Km [8]: 203 µM
Km [9]: 21 µM
Km [10]: 213 µM
kcat [10]: 99 s⁻¹
